Results reported in patent US5674864A, “N-substituted derivatives of α-mercapto alkylamines, their preparation process and the intermediates obtained, their use as medicaments and the compositions containing them” (Roussel Uclaf, priority 1990, dated 1997).

What was measured:
[1] = Stretchings caused by acetic acid in a mouse (analgesic activity); assay type: in vivo; details: 0.25 h, PO, half-an-hour before intraperitoneal acetic acid, 15 minutes observation, read-out: DA50 (dose which allows a decrease of 50% in the number of stretchings)
Procedure: 2) Study of analgesic activity in a mouse Stretchings caused by acetic acid in a mouse
The test used was based on the fact indicated by KOSTER, et al [Fed. Proc. (1959), Vol. 1B, p. 412] according to which the intraperitoneal injection of acetic acid causes, in a mouse, repeated stretching and twisting movements which can persist for more than 6 hours. Analgesics prevent or lessen this syndrome which can be considered as the outward display of a widespread abdominal pain. A 1% solution of acetic acid in water was used and was administered at a volume of 10 ml/kg. The studied product was administered by buccal route half-an-hour before the acetic acid injection, the mice having gone without food for at least 6 hours. The stretchings were observed and counted for Each mouse for an observation period of 15 minutes. The results were expressed by means of the DA50, that is the dose which allows a decrease of 50% in the number of stretchings to be obtained relative to the control animals.

Hot-plate test = assay type: in vivo; details: Mus musculus, 0.5 h, po, male mice, plate at 56° C., 30 minutes after oral administration; for ED50: read-out: DA50 (dose which increased the reaction time by 50%); for ED100: read-out: DA100 (dose which increased the reaction time by 100%)
Procedure: Male mice weighing 22 g were placed individually on a copper plate maintained at 56° C. by a thermostatically-controlled water bath. […] The reaction time to the heat stimulus was noted and only animals reacting within 4.5 and 6.5 seconds were retained. The reaction time to the pain was measured 30 minutes after oral administration. The variations in the reaction time were expressed as a percentage of the initial time. The DA50 and DA100, or doses which increased the reaction time by 50 and 100%, taking into account variations in the control group, were determined by a graph or by the method of the least squares.

enkephalinase = target: T1, enkephalinase (Rattus norvegicus, UniProt P07861); experiment: Determination of the enkephalinase inhibiting effect; assay type: biochemical; details: renal membrane fraction of a rat; substrate Succinyl-Ala-Ala-Phe-amino-methylcoumarine; 37° C., 30 minutes, pH 7.5
T1 construct: from tissue; host or cells: rat kidney, renal membrane fraction solubilised with octyl beta-D-glucopyranoside (100,000 g supernatant)
T1 sequence (P07861 1-750): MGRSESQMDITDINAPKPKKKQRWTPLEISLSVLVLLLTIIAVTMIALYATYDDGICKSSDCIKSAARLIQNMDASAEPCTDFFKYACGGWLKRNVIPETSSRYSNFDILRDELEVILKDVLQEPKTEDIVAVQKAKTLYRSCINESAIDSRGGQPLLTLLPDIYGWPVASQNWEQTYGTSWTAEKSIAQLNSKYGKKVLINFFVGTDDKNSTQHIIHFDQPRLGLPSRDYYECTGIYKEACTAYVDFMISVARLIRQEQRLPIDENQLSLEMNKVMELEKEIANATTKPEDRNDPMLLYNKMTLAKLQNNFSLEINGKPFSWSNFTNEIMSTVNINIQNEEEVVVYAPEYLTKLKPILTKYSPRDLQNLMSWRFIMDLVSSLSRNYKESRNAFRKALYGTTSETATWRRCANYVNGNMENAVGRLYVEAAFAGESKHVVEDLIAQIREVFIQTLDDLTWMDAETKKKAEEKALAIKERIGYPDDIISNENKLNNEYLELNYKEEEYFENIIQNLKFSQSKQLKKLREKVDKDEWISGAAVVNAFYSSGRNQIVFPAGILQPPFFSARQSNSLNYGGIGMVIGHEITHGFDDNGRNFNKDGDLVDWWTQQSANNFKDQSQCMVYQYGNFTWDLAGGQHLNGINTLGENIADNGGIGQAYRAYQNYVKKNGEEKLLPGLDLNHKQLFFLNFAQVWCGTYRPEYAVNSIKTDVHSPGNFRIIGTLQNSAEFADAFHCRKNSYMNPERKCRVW
Procedure: 1) Determination of the enkephalinase inhibiting effect
The enkephalinase activity was determined from a renal membrane fraction of a rat. The kidneys were removed on ice and homogenized in a HEPES 0.05M pH 7.5 buffer containing magnesium chloride (50 times the volume). After a first centrifugation at 1,500 g, the specific fraction was obtained from a centrifugation at 15,000 g for 20 minutes. The deposit was then washed and suspended in a HEPES buffer and kept at -20° C. An aliquot of this membrane preparation was put in the presence of octyl beta-D-glucopyranoside (50 mM as final […]) for 15 minutes at 4° C. After centrifugation at 100,000 g for one hour, the supernatant was removed and frozen in aliqots at -20° C. The concentration of proteins was determined by the method using Comassie's blue.
An aliquot of the protein fraction thus prepared was preincubated at 25° C. for 10 minutes in a HEPES 0.05M pH 7.5 buffer or in the presence of the product to be studied. The substrate added was a non-natural enkephalin of formula Succinyl-Ala-Ala-Phe-amino-methylcoumarine (reference 1) (40mM as final concentration). The incubation continued at 37° C. for 30 minutes and then the reaction was stopped by heating to 95° C. for 5 minutes and each incubate was centrifuged. A solution of amino peptidase M (4 mM as final concentration) and thiorphan (reference 2) (10^-5 M) was added to the supernatant and the mixture was taken to 37° C. for one hour. The reaction was stopped as previously described and the fluorescence of 7-amino-methyl-coumarine produced was determined. The effect of the products to be tested was determined by calculating the IC50, the concentration which inhibited the hydrolysis of the substrate by 50%.
Reference 1: R. A. Munford, P. A. Pierzchala, A-W Strauss and M. Zimmerman, Purification of a membrane-bound metalloendo peptidase from porcine kidney that degrades peptides hormones. Proc. Natl. Acad. Sci 78, No. 11, p. 6623.
Reference 2: Inhibitor of enkephalinase described in Example 20 of French Patent No. 2,480,747.

Structure (SMILES) | ED50 [1] [mg/kg] | ED50 (Hot-plate test) [mg/kg] | ED100 (Hot-plate test) [mg/kg] | IC50 (enkephalinase) [nM]
CCCN(CCC)C(=O)NC(CS)Cc1ccccc1 (single isomer, unassigned; (+)) [Example 18, (+) N,N-dipropyl-N'-[2-mercapto-1-(phenylmethyl)-ethyl]urea] | 33 | 33 | 100 | 180
CCCN(CCC)C(=O)NC(CSC(C)=O)Cc1ccccc1 (stereo not drawn) [Example 17, S-[2-[3-bis(propyl)-ureido]-3-phenyl-propyl]-ethanethioate] |  |  |  | 48
CC(=O)SCC(Cc1ccccc1)NC(=O)Nc1ccccc1 (stereo not drawn) [Example 15, S-[2-(3-phenyl-ureido)-3-phenylpropyl]ethanethioate] |  |  |  | 100
O=C(Nc1ccccc1)NC(CS)Cc1ccccc1 (single isomer, unassigned; (+)) [Example 16] | 50 |  |  | 70
CN(O)C(=O)NC(CS)Cc1ccccc1 (single isomer, unassigned; (+)) [Example 6, (+) N-hydroxy-N'-[2-mercapto-1-(phenylmethyl)-ethyl]-N-methyl urea] |  |  |  | 3.5
CONC(=O)NC(CSC(C)=O)Cc1ccccc1 (stereo not drawn) [Example 1, S-[2-(3-methoxy-ureido)-3-phenyl-propyl]-ethanethioate] | 71 |  |  | 87
CC(=O)SCC(Cc1ccccc1)NC(=O)N(C)O (stereo not drawn) [Example 5] |  | 100 | 200 | 
COC(=O)CNC(=O)NC(CSC(C)=O)Cc1ccccc1 (stereo not drawn) [Example 11, Methyl N-[[[2-(acetylthio)-1-(phenylmethyl)-ethyl]-amino]-carbonyl]-glycinate] | 85 | 100 |  | 
